{
  "source": "patent US20230002756A1",
  "about": "“High Performance Platform for Combinatorial Genetic Screening” (THE TRUSTEES OF THE UNIVERSITY OF PENNSYLVANIA, priority 2019, published 2023)",
  "key": {"[1]": {"system": "HEK293T d2GFP reporter line", "experiment": "GFP disruption assay", "assay_type": "cell-based, human", "conditions": "for gene editing activity / efficiency (GFP reporter disruption): HEK293T GFP reporter cell line", "description": "GFP disruption assay. HEK293T cells were first lentivirally transduced with a destabilized GFP (d2GFP) reporter (derived from Addgene #14760). The resulting HEK293T d2GFP reporter line was then transiently transfected with indicated AsCas12a vector and a vector expressing GFP-targeting crRNA. This d2GFP HEK293T reporter line was used to evaluate the knockout efficiency of seven Addgene-available Cas12a systems (Butyrivibrio sp., Thiomicrospira sp. XS5, Moraxella bovoculi, Prevotella bryantii, Bacteroidetes oral, Lachnospiraceae bacterium, and Acidaminococcus). In addition, AsCas12a vector contained 1, 2, 4, or 6 SV40 or c-Myc NLS cloned into either the N- or C-terminus. The crRNA vector contained an expression marker for mCherry for successful transfection tracking. Cells were cultured for 3 days and subjected to flow cytometry to measure knockdown of GFP using the Guava Easycyte 10 HT instrument (Millipore). Percent GFP disruption is plotted. Two independent GFP-targeting crRNA are presented."}, "K562 cells": {"system": "K562 cells", "experiment": "Competition-based cellular proliferation assay", "assay_type": "cell-based", "description": "Competition-based cellular proliferation assays. Indicated AsCas12a-expressing cell lines were infected with a lentivirus (pRG212) encoding crRNA, targeting essential genes or known cancer dependencies, linked to a GFP reporter, to track successful transduction, at a multiplicity of infection (MOI) of around 0.2-0.5. The percentage of crRNA-positive (GFP-positive) cell population was monitored over time using the Guava Easycyte 10 HT instrument (Millipore). To assess the impact of a specific single-crRNA or dual-crRNA on cellular proliferation, final time point GFP % was divided by initial time point GFP % to calculate the negative selection fold-change of the crRNA-positive cell population.\nTo address the low knockout efficiency in mammalian cells, the AsCas12a system was subjected to three levels of optimization. In order to evaluate the knockout efficiency of the system, AsCas12a and its crRNA were expressed using a two-vector lentiviral expression strategy and conducted a competition-based cellular proliferation assay, a reliable proxy for dropout screening (FIG. 1A, 1B). crRNAs targeting known essential genes were designed, including replication protein PCNA and cyclin-dependent kinase CDK1. AsCas12a knockout efficiency was then assessed by measuring the negative selection strength of essential gene-targeting crRNAs in a 16-day time-course. […]"}},
  "note": "“Also recorded” adds a separate entry of the source.",
  "data": [
    {"substance": "AsCas12a: Acidaminococcus Cas12a, wild type RNA-programmable DNA endonuclease", "values": [
      {"measurement": "gene editing activity / efficiency (GFP reporter disruption)", "setting": "[1]", "result": "high gene editing activity"},
      {"measurement": "knockout efficiency relative to SpCas9", "setting": "[1]; in human cells", "result": "approximately one third"}
    ]},
    {"substance": "enAsCas12a: AsCas12a with E174R and S542R mutations, used with 6xNLS and dual-DR crRNA; the improved/engineered Cas12a system", "values": [
      {"measurement": "gene editing activity / efficiency (GFP reporter disruption)", "setting": "[1]", "result": "comparable to Cas9"},
      {"measurement": "knockout efficiency", "setting": "K562 cells; crRNAs targeting essential genes PCNA and CDK1, 16-day time-course", "result": "enhances knockout efficiency"},
      {"measurement": "effect on cellular proliferation (toxicity to the cells)", "setting": "K562 cells; non-targeting crRNAs and crRNAs targeting introns of PCNA and CDK1", "result": "no obvious effect on cellular proliferation; also recorded: does not significantly affect cellular proliferation"}
    ]}
  ]
}
